Tests used:
IgE = test: Total content of IgE in serum, ovalbumin asthma model; assay type: in vivo, BALB/c female mice; settings: day 25, compared to OVA group
Procedure: (§1) 6 week old BALB/c female mice were purchased and the mice were divided into 5 groups with 5 animals per group shown in Table 3 below after habituation breeding of about 2 weeks.
(§2) The test was conducted on the schedule of sensitization, causing diseases and administration of test materials shown in FIG. 12. “IP” in FIG. 12 refers to ovalbumin sensitization treatment by the intraperitoneal administration of ovalbumin/aluminum hydroxide, and “IH” refers to inhalation exposure treatment of ovalbumin, and “PO” refers to the administration of the test materials. Specifically, 200 μL of PBS (pH 7.4) emulsified by the addition of 20 μg ovalbumin and 2 mg aluminum hydroxide as an adjuvant was intraperitoneally administered to all mice in 4 groups except the normal control group (the initial sensitization, day 1 of the test). Then, after 2 weeks (day 14 of the test), the second sensitization treatment was conducted in the same way as the initial sensitization. […]
(§3) On day 25 of the test, the total contents of IgE and contents of ovalbumin-specific IgE in serums were measured using blood collected from orbital sinuses of the mice. An ELISA kit for IgE measurement (a product from BioLegend, Inc.) was used for the measurement and the contents were measured at wavelength of 450 nm using a micro plate reader (a product from Bio-Rad Laboratories, Inc.).

[1] = system: Myocardial Disorder Induced by Doxorubicin; test: Histopathologic examination of the hearts (transmission electron microscope), myocardial disorder induced by doxorubicin; assay type: in vivo, female SD rats; settings: Test group 2: doxorubicin + HTHQ 50 mg/kg; day 7
Procedure: (§4) Doxorubicin is used to produce disease-model animals of cardiomyopathy. The doxorubicin and 2,3,5-trimethylhydroquinone-1-hexyl ether (HTHQ) as the hydroquinone derivative represented by the general formula (1) described above of the present invention were simultaneously administered to female SD rats of 4 week old after birth to examine the effect of the action. The test groups consisted of the control group to which sterile saline was administered; test group 1 to which doxorubicin (13 mg/kg body weight) alone was administered; test group 2 to which doxorubicin (13 mg/kg body weight) and HTHQ (50 mg/kg body weight) were administered in combination; and test group 3 to which doxorubicin (13 mg/kg body weight), HTHQ (50 mg/kg body weight) and recombinant human erythropoietin (400 IU/kg body weight) were administered in combination. […] The test group 3 is used to confirm the presence or absence of the inhibitory effect brought about by combining HTHQ and rHuEPO on myocardial disorder.
Doxorubicin was orally administered in a single dose to the rats in test groups 1 to 3. 2,3,5-trimethylhydroquinone-1-hexyl ether (HTHQ) was orally administered to the rats in test groups 2 and 3 twice in total: 3 days before the administration of doxorubicin and on the day of the administration. […]

IL-13 = IL-13 level in BAL fluid (ELISA), ovalbumin asthma model; assay type: in vivo, BALB/c female mice; settings: HTHQ 20 and 40 mg/kg/day oral; compared to OVA group
Procedure: as §1
The test was conducted on the schedule of sensitization, causing diseases and administration of test materials shown in FIG. 12. “IP” in FIG. 12 refers to ovalbumin sensitization treatment by the intraperitoneal administration of ovalbumin/aluminum hydroxide, and “IH” refers to inhalation exposure treatment of ovalbumin, and “PO” refers to the administration of the test materials. […]
All mice were euthanized by intraperitoneal injection of pentobarbital (Hanrimu pharmaceutical, South Korea) at 50 mg/kg and the bronchi were excised on day 25 of the test. […] After preparing slide samples from 100 μL of BAL cell fluid using Cytospin (4° C., 1000 rpm×5 min), the cell numbers of inflammatory cells (eosinophils, macrophages, lymphocytes and neutrophils) present in the BAL fluid were counted using a Diff-Quik stain kit.
The supernatant of the BAL fluid stored was taken out of the super-cryostat and IL-4, IL-5 and IL-13 levels were measured as the pro-inflammatory cytokine contents in the supernatant of the BAL fluid. A quantitative ELISA kit (a product from R&D systems) and a microplate reader (a product from Bio-Rad Laboratories, Inc.) were used for the measurement and the measurement wavelength was 450 nm.

ovalbumin-specific IgE = test: Content of ovalbumin-specific IgE in serum, ovalbumin asthma model; assay type: in vivo, BALB/c female mice; settings: HTHQ 20 and 40 mg/kg/day oral; day 25; no significant difference
Procedure: as §1, §2, §3

[2] = system: Myocardial Disorder Induced by Doxorubicin; test: Histopathologic examination of the hearts (light microscope), myocardial disorder induced by doxorubicin; assay type: in vivo, female SD rats; settings: for Severity score: Cell infiltration in interstitial tissue / Severity score: Degeneration of myocardial cells / Severity score: Loss and disorganization of myocardial fibers / Severity score: Loss of intercalated discs / Severity score: Loss of striations / Severity score: Vacuolation of myocardial fibers: Test group 2: doxorubicin 13 mg/kg + HTHQ 50 mg/kg; for lesions of cardiac tissue (light microscope): Test group 2: doxorubicin + HTHQ 50 mg/kg, compared to test group 1
Procedure: as §4
Doxorubicin was orally administered in a single dose to the rats in test groups 1 to 3. 2,3,5-trimethylhydroquinone-1-hexyl ether (HTHQ) was orally administered to the rats in test groups 2 and 3 twice in total: 3 days before the administration of doxorubicin and on the day of the administration. Recombinant human erythropoietin was daily administered to the rats in test group 3 starting from 3 days before the administration of doxorubicin by intravenous injection. The number of animals in each group was 16. 8 animals of each group were sacrificed after collecting blood on day 7 and 14 after the administration of doxorubicin, and the autopsy of the hearts, the calculation of the relative weights of the hearts, the histopathologic examination of the hearts and the hematological examination were conducted.
“−” indicates “not found”, “+” indicates “mild”, “++” indicates “moderate”, and “+++” indicates “severe” in severity scores of the table.

Compound: CCCCCCOc1cc(C)c(O)c(C)c1C [HTHQ, 2,3,5-trimethylhydroquinone-1-hexyl ether]
- total amount of IgE in serum (IgE; HTHQ 20 mg/kg/day oral (HTHQ20)): significant reduction
- total amount of IgE in serum (IgE; HTHQ 40 mg/kg/day oral (HTHQ40)): a declining trend
- findings in myocardial cells (transmission electron microscope) [1]: loss of striations was alleviated
- IL-13 content in BAL fluid (IL-13): significantly reduced
- amount of ovalbumin-specific IgE in serum (ovalbumin-specific IgE): a declining trend was seen
- Severity score: Cell infiltration in interstitial tissue ([2]; Day 7 after administration): −
- Severity score: Degeneration of myocardial cells ([2]; Day 7 after administration): +
- Severity score: Loss and disorganization of myocardial fibers ([2]; Day 7 after administration): +
- Severity score: Loss of intercalated discs ([2]; Day 7 after administration): +
- Severity score: Loss of striations ([2]; Day 7 after administration): +
- Severity score: Vacuolation of myocardial fibers ([2]; Day 7 after administration): −
- Severity score: Cell infiltration in interstitial tissue ([2]; Day 14 after administration): −
- Severity score: Degeneration of myocardial cells ([2]; Day 14 after administration): +
- Severity score: Loss and disorganization of myocardial fibers ([2]; Day 14 after administration): +
- Severity score: Loss of intercalated discs ([2]; Day 14 after administration): +
- Severity score: Loss of striations ([2]; Day 14 after administration): +
- Severity score: Vacuolation of myocardial fibers ([2]; Day 14 after administration): +
- lesions of cardiac tissue (light microscope) ([2]; day 7): alleviated
- lesions of cardiac tissue (light microscope) ([2]; day 14): also alleviated
